Where “and” joins values, the source holds several entries; their conditions need not be identical. Equal values may be shown once. Entries after “also recorded” stand apart in the source; their conditions may differ.
How the values were obtained:
[1] = tested on: stags of elk of which the first horn was cut in the summer; assay: Promoting the growth of the second stag's horn after cutting the first horn; assay type: in vivo; conditions: for Growth and development progress of the second stag's horn: 500 mg (1 mg/kg) injected Oct. 2, 1999 or Oct. 2, 2000
Method: To 4 stags of elk, of which the first horn coming up in the spring and growing cut in the summer, each in the weight of 500 kg, 17β-decanoate-4-estrene-3-one 500 mg (effective dose corresponding to 1 mg per 1 kg of the weight of stag: “ANABOLIN FORTE” is the trademark manufactured by Alfasan in Nederland and containing 17β-decanoate-4-estrene-3-one 50 mg in a injection product 1 ml; “ANABOLIN FORTE 10 ml” is the trademark imported by BUM-HAN PHARM. in Korea) was injected-injected.
To 8 stags of elk, each in the weight of 500 kg, of which the first horn coming up in the spring and grown up cuts in the summer, 17β-decanoate-4-estrene-3-one 50 mg, 100 mg, 250 mg, 500 mg, 750 mg, 1,000 mg, 2,500 mg and 5,000 mg (effective doses corresponding to 0.1 mg, 0.2 mg, 0.5 mg, 1.0 mg, 1.5 mg, 2.0 mg, 5.0 mg and 10 mg per 1 kg of the weight of stag: “ANABOLIN FORTE” is the trademark manufactured by Alfasan in Nederland and containing 17β-decanoate-4-estrene-3-one 50 mg in a injection product 1 ml; “ANABOLIN FORTE 1 ml, 2 ml, 5 ml, 10 ml, 15 ml, 20 ml, 50 ml and 100 ml” is the trademark imported by BUM-HAN PHARM. in Korea) were injected-injected.
Example 8 was the same as Example 3, except that Example 8 substituted 17β-cyclohexylpropionate-4-estrene-3-one for 17β-decanoate-4-estrene-3-one.
Example 9 was the same as Example 5, except that Example 9 substituted 17β-cyclohexylpropionate-4-estrene-3-one for 17β-decanoate-4-estrene-3-one.
Example 11 was the same as Example 3, except that Example 9 substituted a compound of 17β-decanoate-4-estrene-3-one and 17β-cyclohexylpropionate-4-estrene-3-one for 17β-decanoate-4-estrene-3-one.

[2] = tested on: stags of elk, violent and anorexia in the puberty age of the fall; assay: Alleviating the violence and stimulating the appetite of stags in the puberty age of the fall; assay type: in vivo
Method: To 4 stags of elk, each in the weight of 500 kg, which is violent and anorexia in the puberty age of the fall, 17β-decanoate-4-estrene-3-one 500 mg (effective dose corresponding to 1 mg per 1 kg of the weight of stag: “ANABOLIN FORTE” is the trademark manufactured by Alfasan in Nederland and containing 17β-decanoate-4-estrene-3-one 50 mg in a injection product 1 ml; “ANABOLIN FORTE 10 ml” is the trademark imported by BUM-HAN PHARM. in Korea) was intramuscularly-injected.
To 8 stags of elk, each in the weight of 500 kg, which is violent and anorexia in the puberty age of the fall, 17β-decanoate-4-estrene-3-one 50 mg, 100 mg, 250 mg, 500 mg, 750 mg, 1,000 mg, 2,500 mg and 5,000 mg (effective doses corresponding to 0.1 mg, 0.2 mg, 0.5 mg, 1.0 mg, 1.5 mg, 2.0 mg, 5.0 mg and 10 mg per 1 kg of the weight of stag: “ANABOLIN FORTE” is the trademark manufactured by Alfasan in Nederland and containing 17β-decanoate-4-estrene-3-one 50 mg in a injection product 1 ml; “ANABOLIN FORTE 1 ml, 2 ml, 5 ml, 10 ml, 15 ml, 20 ml, 50 ml and 100 ml” is the trademark imported by BUM-HAN PHARM. in Korea) were injected-injected.
Example 6 was the same as Example 1, except that Example 6 substituted 17β-cyclohexylpropionate-4-estrene-3-one for 17β-decanoate-4-estrene-3-one.
Example 7 was the same as Example 2, except that Example 7 substituted 17β-cyclohexylpropionate-4-estrene-3-one for 17β-decanoate-4-estrene-3-one.
Example 10 was the same as Example 2, except that Example 9 substituted a compound of 17β-decanoate-4-estrene-3-one and 17β-cyclohexylpropionate-4-estrene-3-one for 17β-decanoate-4-estrene-3-one.

[3] = Elk 5, 500 kg, dose 50 mg (0.1 mg/kg) injected
[4] = Elk 6, 500 kg, dose 100 mg (0.2 mg/kg) injected
[5] = Elk 7, 500 kg, dose 250 mg (0.5 mg/kg) injected
[6] = Elk 8, 500 kg, dose 500 mg (1.0 mg/kg) injected
[7] = Elk 9, 500 kg, dose 750 mg (1.5 mg/kg) injected
[8] = Elk 10, 500 kg, dose 1,000 mg (2.0 mg/kg) injected
[9] = Elk 11, 500 kg, dose 2,500 mg (5.0 mg/kg) injected
[10] = Elk 12, 500 kg, dose 5,000 mg (10 mg/kg) injected
[11] = elk stags 500 kg, doses 0.1, 0.2, 0.5, 1.0, 1.5, 2.0, 5.0 and 10 mg per kg

Compound: CCCCCCCCCC(=O)O[C@H]1CC[C@H]2[C@@H]3CCC4=CC(=O)CC[C@@H]4[C@H]3CC[C@]12C [17β-decanoate-4-estrene-3-one]
- Growth and development progress of the second stag's horn ([1]; 0 days after administration, individual Elk 21, 22 (500 kg)): 0 cm
- production amount of the second stag's horn relative to that of the first stag's horn ([1]; 1 mg/kg injected, elk 500 kg): about 80%
- time from administration until the second stag's horn comes up ([1]; 1 mg/kg intramuscularly injected, elk 500 kg): 30 days
- growth rate of the second stag's horn ([1]; 1 mg/kg intramuscularly injected, elk 500 kg, after the horn came up): 3 cm per a day
- Production amount of stag's horn: the second horn collected in the next spring ([1]; 500 mg (1 mg/kg) injected 1999.10.2 or 2000.10.2, individual Elk 21, 22 (500 kg)): 12 kg (2×) and 9.6 kg (2×)
- Growth and development progress of the second stag's horn ([1]; 10 days after administration, individual Elk 21, 22 (500 kg)): 0 cm
- Growth and development progress of the second stag's horn ([1]; 20 days after administration, individual Elk 21, 22 (500 kg)): 0 cm
- Growth and development progress of the second stag's horn ([1]; 30 days after administration, individual Elk 21, 22 (500 kg)): 0.5 cm
- Growth and development progress of the second stag's horn ([1]; 40 days after administration, individual Elk 21, 22 (500 kg)): approximately 30 cm and 30 cm
- Growth and development progress of the second stag's horn ([1]; 50 days after administration, individual Elk 21, 22 (500 kg)): 40 cm
- Growth and development progress of the second stag's horn ([1]; 60 days after administration, individual Elk 21, 22 (500 kg)): 60 cm
- Growth and development progress of the second stag's horn ([1]; 70 days after administration, individual Elk 21, 22 (500 kg)): 80 cm
- Growth and development progress of the second stag's horn ([1]; 80 days after administration, individual Elk 21, 22 (500 kg)): 90 cm and 100 cm (3×)
- Growth and development progress of the second stag's horn ([1]; 90 days after administration, individual Elk 21, 22 (500 kg)): 100 cm and 110 cm (2×) and 120 cm
- Growth and development progress of the second stag's horn ([1]; 100 days after administration, individual Elk 21, 22 (500 kg)): 100 cm and 110 cm (2×) and 120 cm
- Production amount of stag's horn: the second horn collected in the next spring ([1]; Elk 31, 500 kg, dose 50 mg (0.1 mg/kg), first horn 15 kg): 5 kg
- Production amount of stag's horn: the second horn collected in the next spring ([1]; Elk 32, 500 kg, dose 100 mg (0.2 mg/kg), first horn 15 kg): 5 kg
- Production amount of stag's horn: the second horn collected in the next spring ([1]; Elk 33, 500 kg, dose 250 mg (0.5 mg/kg), first horn 15 kg): 12 kg
- Production amount of stag's horn: the second horn collected in the next spring ([1]; Elk 34, 500 kg, dose 500 mg (1.0 mg/kg), first horn 15 kg): 12 kg
- Production amount of stag's horn: the second horn collected in the next spring ([1]; Elk 35, 500 kg, dose 750 mg (1.5 mg/kg), first horn 15 kg): 12 kg
- Production amount of stag's horn: the second horn collected in the next spring ([1]; Elk 36, 500 kg, dose 1,000 mg (2.0 mg/kg), first horn 15 kg): 12 kg
- Production amount of stag's horn: the second horn collected in the next spring ([1]; Elk 37, 500 kg, dose 2,500 mg (5.0 mg/kg), first horn 15 kg): 5 kg
- Production amount of stag's horn: the second horn collected in the next spring ([1]; Elk 38, 500 kg, dose 5,000 mg (10 mg/kg), first horn 15 kg): 5 kg
- growth of stag's horn ([1]; elk 500 kg, doses 0.1, 0.2, 0.5, 1.0, 1.5, 2.0, 5.0 and 10 mg per kg): promoted
- Status After: appetite [2, 3]: Stimulating appetite
- Status After: violence [2, 3]: Alleviating violence
- Status After: appetite [2, 4]: Stimulating appetite
- Status After: violence [2, 4]: Alleviating violence
- Status After: appetite [2, 5]: Stimulating appetite
- Status After: violence [2, 5]: Alleviating violence
- Status After: appetite [2, 6]: Stimulating appetite
- Status After: violence [2, 6]: Alleviating violence
- Status After: appetite [2, 7]: Stimulating appetite
- Status After: violence [2, 7]: Alleviating violence
- Status After: appetite [2, 8]: Stimulating appetite
- Status After: violence [2, 8]: Alleviating violence
- Status After: appetite [2, 9]: Stimulating appetite
- Status After: violence [2, 9]: Alleviating violence
- Status After: appetite [2, 10]: Stimulating appetite
- Status After: violence [2, 10]: Alleviating violence
- Status After: appetite ([2]; elk stags 500 kg, anorexia before, 500 mg (1 mg/kg) intramuscularly injected 2000.10.2, individual Elk 1-4): stimulated in appetite; also recorded: Stimulating appetite
- Status After: violence ([2]; elk stags 500 kg, violent before, 500 mg (1 mg/kg) intramuscularly injected 2000.10.2, individual Elk 1-4): less violent; also recorded: Alleviating violence
- intake of feed ([2]; elk stags 500 kg, 1.0 mg/kg intramuscularly injected): increasing the intake of feed
- appetite after injection [2, 11]: stimulated in appetite
- intake of feed [2, 11]: increasing the intake of feed
- violence after injection [2, 11]: less violent

Compound: C[C@]12CC[C@H]3[C@@H](CCC4=CC(=O)CC[C@@H]43)[C@@H]1CC[C@@H]2OC(=O)CCC1CCCCC1 [17β-cyclohexylpropionate-4-estrene-3-one]
- test results (growth and production amount of the second stag's horn) compared with 17β-decanoate-4-estrene-3-one ([1]; conducted as Example 3: 500 mg (1 mg/kg), elk stags 500 kg): the same as those of Example 3
- test results (production amount of the second stag's horn by dose) compared with 17β-decanoate-4-estrene-3-one ([1]; conducted as Example 5: 50 to 5,000 mg (0.1 to 10 mg/kg), elk stags 500 kg): the same as those of Example 5
- test results (violence, appetite) compared with 17β-decanoate-4-estrene-3-one ([2]; conducted as Example 1: 500 mg (1 mg/kg) intramuscular, elk stags 500 kg): the same as those of Example 1
- test results (violence, appetite) compared with 17β-decanoate-4-estrene-3-one ([2]; conducted as Example 2: 50 to 5,000 mg (0.1 to 10 mg/kg), elk stags 500 kg): the same as those of Example 2
